These results are taken from ChEMBL document CHEMBL1777789, “The square conformation of phenylglycine-incorporated ascidiacyclamide is stabilized by CH/π interactions between amino acid side chains” (2011).

One assay concerns HL-60. Nature of the assay: Cytotoxicity against human HL60 cells after 72 hrs by MTT assay. The format is functional. The settings on record: HL-60, 72 h, read-out: ED50.
For another assay, the system named is P388. Nature of the assay: Cytotoxicity against mouse P388 cells after 72 hrs by MTT assay. In kind it is functional. The settings on record: P388, 72 h, read-out: ED50. On the technique in general: Tetrazolium assays rely on reduction of a dye to a coloured formazan, in cell work by metabolically active cells.

Structures are written as SMILES. ≈ marks a conversion by molar mass, not a printed value.

With `CC[C@H](C)[C@@H]1NC(=O)c2csc(n2)[C@@H](C(C)C)NC(=O)[C@H]2N=C(O[C@@H]2C)[C@H](c2ccccc2)NC(=O)c2csc(n2)[C@@H](C(C)C)NC(=O)[C@H]2N=C1O[C@@H]2C`, the EC50 was 12.8 µg/mL (≈ 16.5 µM) with HL-60 and 12.4 µg/mL (≈ 16 µM) in the assay with P388.
The like results for `CC[C@H](C)[C@@H]1NC(=O)c2csc(n2)[C@@H](C(C)C)NC(=O)[C@H]2N=C(O[C@@H]2C)[C@H]([C@@H](C)CC)NC(=O)c2csc(n2)[C@@H](C(C)C)NC(=O)[C@H]2N=C1O[C@@H]2C` [ASCIDIACYCLAMIDE] were, in that order, 33.5 µg/mL (≈ 44.3 µM) and 10.5 µg/mL (≈ 13.9 µM).
